Experimental data taken from patent US5958966A, “Treatment of aberrant cellular states with biomodulators” (University of New Mexico, priority 1995, dated 1999).
“Also recorded” adds a separate entry of the source.

Columns and labels:
[1] = tested on: human peripheral blood leukocytes (HPBL); assay: stimulation / inhibition of IgG production in HPBL; type: cell-based; conditions: HPBL
Protocol: Human peripheral blood leukocytes were cultured in a standard tissue culture medium. Aliquots of these cultured cells (1,000,000 cells/ml medium) were cultured for 6 hours, and the specified amount of Formula II compound was added; the cells were then cultured for an additional 90 hours. Sheep red blood cells (SRBC) conditioned with class-specific (IpG) goat anti-human antiserum (1:400) for 2 hours; then guinea pig complement (2%) for 2 hours were conjugated to Protein A as described in detail in Radioimmunoimaging and Radioimmunotherapy, Eds. S. W. Burchiel and B. A. Rhodes, Elsevier Science Publishing; New York, 1983, pp. 125-127, incorporated herein by reference.

[2] = tested on: anti-CG IgG antibodies; assay: tumor-specific (anti-CG) antibody production in a dog; type: in vivo
[3] = tested on: canine glioma (CG) cells; assay: chromium-release cell-mediated lympholysis (CML) vs. CG tumor in a dog; type: in vivo; conditions: for CG-specific CML in words: dog
From the text: Cellular immune response reflected the results reported in III, 1 above. […] This also is in the absence of CG antigen exposure. […] Thus, both cellular and humoral immunity appear to be modulatable in the absence of antigen by the compounds of the instant invention.

[4] = tested on: canine glioma cells; assay: canine glioma tumor inhibition in nude rats (Formula II compound); type: in vivo, nude rat
Protocol: Fifty four nude rats (Harlan) were injected in the right flank with 5×10^6 canine glioma cells. Animals at the time of injection were between 52 and 63 days old and weighed approximately 200 g. The rats were divided into 7 groups, each group having a total number of 7 rats except for the control group, which totalled 12 animals. Compound IIc' was administered to the experimental animals at one of the following doses for each experimental group: 100 μg/kg, 10 μg/kg, 1 μg/kg, 0.1 μg/kg, 0.01 μg/kg and 0.001 μg/kg (phosphate buffer saline, M, W, F, I.P.). The control animals were injected with PBS (phosphate buffered saline) only. The volume of each injection was 100 μl. The injections of drug were simultaneously begun with injection of tumor cells. The animals were injected with the appropriate dosage of drug (1 ng/kg to […]) by I. P. injection and tumor length, width and depth were measured using caliphers each Monday, Wednesday and Friday (M, W, F) morning for approximately 9 weeks. Each point on the graphs represents the total of all rats for each group. […] The data were normalized for the greater number of control animals by multiplying the total tumor volume for the control animals by 7/12.

CC(C)OC(=O)C[C@H](O)C[C@@H](O)/C=C/c1c(C(C)C)nc(-c2ccccc2)n1-c1ccc(F)cc1 [Compound IIc']
IgG production in words [1]: stimulated IgG production | Inhibitory Concentration (nonspecific IgG production below normal) [1]: none found | optimal dose in vitro ([1]; immune stimulation): 100 pM | CG-specific antibody titer in words [2]: titers of antibody increased over the control antibody titer significantly; also recorded: CG-specific antibody (IgG) production increased significantly; also recorded: rapidly (within a few days) reverted to baseline control levels | slope M of linear regression of toxicity ([3]; December 14, 1987): 0.05 | slope M of linear regression of toxicity ([3]; February 9, 1988): 0.35 | slope M of linear regression of toxicity ([3]; February 17, 1988): 0.75 | slope M of linear regression of toxicity ([3]; March 31, 1988): 0.05 | CG-specific CML in words [3]: significant increase in CML; also recorded: large increase in the CML reactivity; also recorded: CML reactivity again returned to baseline | CG-specific CML in words ([3]; listed as IIIc'): only baseline levels of CG-specific CML were present | cytostatic activity at other doses ([4]; 10 and 100 μg/kg or 1 ng/kg): Little or no cytostatic activity | most effective dosage for inhibition ([4]; nude rats, I.P., M, W, F): 100 ng/kg
